Test results published in patent US12545685B2 (Daiichi Sankyo Company, Limited, priority 2011, dated 2026).

Assays:
[1] = molecular target: T1, Mdm2/p53 binding (GST-Mdm2 / His-p53) (Homo sapiens, UniProt Q00987, L33E); assay: Mdm2/p53 binding assay (HTRF, His-p53 and GST-Mdm2); conditions: His-p53 (aa 1-132) and GST-Mdm2 (aa 25-108, L33E) 6.25 nM each; 25°C, 1 hour; values given as ranges
T1 construct: Mdm2 partial protein having Mdm2 amino acids at positions 25 to 108
Outline: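 Binding was detected by HTRF (ex 320 nm, em 620/665 nm) after 1 h at 25 °C, using Eu-cryptate anti-GST and XL665 anti-His antibodies. The protein pair was GST-Mdm2 (residues 25–108, L33E) with His-p53 (residues 1–132), each 6.25 nM in the protein dilution. T/C used no-compound control and no-p53 background, and IC50 came from sigmoid fitting.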

[2] = system: human lung cancer-derived cell line NCI-H460 having wild-type p53; assay: Cell growth inhibition assay (MTT); format: cell-based; conditions: 72 h, NCI-H460 cells, 3 days culture, values given as ranges, read-out: 50% growth inhibition concentration (GI50 value)
Description: A cell growth inhibition assay was conducted using a human lung cancer-derived cell line NCI-H460 having wild-type p53.
NCI-H460 cells were suspended in a medium (RPMI1640 medium containing 10% fetal bovine serum) and the suspension was added in an amount of 500 cells/150 μl/well to a 96-well plate. A test compound was dissolved in DMSO and this solution was diluted with medium to prepare a sample solution (DMSO concentration: 1% or lower). On the next day, medium nonsupplemented with the test compound, or the sample solution, was added in an amount of 50 μl/well. Cells were then cultured at 37° ° C. for 3 days in a 5% CO2 atmosphere.
An MTT assay was conducted immediately after the nonsupplemented medium or the sample solution was added. Another MTT assay was conducted after culturing the cells for 3 days. The MIT assays were conducted as shown below.
A 5 mg/ml MTT (3-(4,5-dimethylthiazol-2-yl)-2,5-diphenyltetrazolium bromide, Sigma-Aldrich Co., M-2128) solution was prepared using a phosphate buffer solution (Dulbecco's Phosphate-buffered Saline). This MIT solution was added in an amount of 20 μl/well. Then the plate was cultured at 37° ° C. for 4 hours in a 5% CO2 atmosphere. The plate was centrifuged at 1200 rpm for 5 minutes and then the culture supernatant was removed by aspiration using a dispenser. DMSO was added in an amount of 150 μl/well to dissolve generated formazan. The plate was stirred using a plate mixer for uniform color development from each well. The absorbance of each well was measured at OD 540 nm and at a reference OD (660 nm) using a plate reader (SpectraMax PLUS384, Molecular Devices, CA, USA).
The OD value measured on the day of adding the sample solution was defined as S. The OD value measured three days after addition of the sample solution was defined as T. The OD value measured three days after addition of the DMSO dilution was defined as C. T/C (%) was determined at each concentration according to the formula shown below in order to prepare a dose response curve, from which 50% growth inhibition concentration (GI50 value) was calculated.

T1 sequence (Q00987 25-108 L33E): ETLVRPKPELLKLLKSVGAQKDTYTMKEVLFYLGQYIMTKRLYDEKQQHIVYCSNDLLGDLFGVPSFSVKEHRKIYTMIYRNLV

IC50 [1] | GI50 [2] | SMILES
1 to 50 nM | 100 to 500 nM | CC1(C)CCC2(CC1)N[C@@H](C(=O)N[C@@H]1CC[C@@H](c3n[nH]c(=O)o3)OC1)[C@H](c1ccnc(Cl)c1F)[C@]21C(=O)Nc2cc(Cl)ccc21 [Example 57, (3′R, 4′S,5′R)-6″-chloro-4′-(2-chloro-3-fluoropyridin-4-yl)-4,4-dimethyl-2″-oxo-N-[(3R,6S)-6-(5-oxo-4,5-dihydro-1,3,4-oxadiazol-2-yl)tetrahydro-2H-pyran-3-yl]-1″,2″-dihydrodispiro[cyclohexane-1,2′-pyrrolidine-3′,3″-indole]-5′-carboxamide]
1 to 50 nM | 1000 to 5000 nM | CC1(C)CCC2(CC1)N[C@@H](C(=O)N[C@H]1CO[C@H](CO)[C@@H](O)C1)[C@H](c1ccnc(Cl)c1F)[C@]21C(=O)Nc2cc(Cl)ccc21 [Example 29]
50 to 100 nM | 100 to 500 nM | CC1(C)CCC2(CC1)N[C@@H](C(=O)N[C@H]1CC[C@H](c3nnc[nH]3)CC1)[C@H](c1ccnc(Cl)c1F)[C@]21C(=O)Nc2cc(Cl)ccc21 (relative stereo) [Example 32, (3′R, 4′S,5′R)-6″-chloro-4′-(2-chloro-3-fluoropyridin-4-yl)-4,4-dimethyl-2″-oxo-N-[trans-4-(4H-1,2,4-triazol-3-yl)cyclohexyl]-1″,2″-dihydrodispiro[cyclohexane-1,2′-pyrrolidine-3′,3″-indole]-5′-carboxamide]
1 to 50 nM | 500 to 1000 nM | CC1(C)CCC2(CC1)N[C@@H](C(=O)N[C@H]1CC[C@@](O)(CO)CC1)[C@H](c1ccnc(Cl)c1F)[C@]21C(=O)Nc2cc(Cl)ccc21 [Example 40, (3′R, 4′S,5R)-6″-chloro-4′-(2-chloro-3-fluoropyridin-4-yl)-N-[trans-4-hydroxy-4-(hydroxymethyl)cyclohexyl]-4,4-dimethyl-2″-oxo-1″,2″-dihydrodispiro[cyclohexane-1,2′-pyrrolidine-3′,3″-indole]-5′-carboxamide]
1 to 50 nM | 1000 to 5000 nM | CC1(C)CCC2(CC1)N[C@@H](C(=O)N[C@@H]1CC[C@@H](CO)OC1)[C@H](c1cc(Cl)cc(CO)c1)[C@]21C(=O)Nc2cc(Cl)ccc21 [Example 28, (3′R, 4′R, 5′R)-6″-chloro-4′-[3-chloro-5-(hydroxymethyl)phenyl]-N-[(3R,6S)-6-(hydroxymethyl)tetrahydro-2H-pyran-3-yl]-4,4-dimethyl-2″-oxo-1″,2″-dihydrodispiro[cyclohexane-1,2′-pyrrolidine-3′,3″-indole]-5′-carboxamide]
1 to 50 nM | 100 to 500 nM | CC1(C)CCC2(CC1)N[C@@H](C(=O)N[C@@H]1CC[C@@H](c3nnco3)OC1)[C@H](c1ccnc(Cl)c1F)[C@]21C(=O)Nc2cc(Cl)ccc21 [Example 34, (3′R, 4′S,5′R)-6″-chloro-4′-(2-chloro-3-fluoropyridin-4-yl)-4,4-dimethyl-N-[(3R,6S)-6-(1,3,4-oxadiazol-2-yl)tetrahydro-2H-pyran-3-yl]-2″-oxo-1″,2″-dihydrodispiro[cyclohexane-1,2′-pyrrolidine-3′,3″-indole]-5′-carboxamide]
1 to 50 nM | 100 to 500 nM | CC1(C)CCC2(CC1)N[C@@H](C(=O)N[C@@H]1CC[C@@H](C(=O)NC3CCOCC3)OC1)[C@H](c1ccnc(Cl)c1F)[C@]21C(=O)Nc2cc(Cl)ccc21 [Example 109, (3′R, 4′S,5′R)-6″-chloro-4′-(2-chloro-3-fluoropyridin-4-yl)-4,4-dimethyl-2″-Oxo-N-[(3R,6S)-6-(tetrahydro-2H-pyran-4-ylcarbamoyl)tetrahydro-2H-pyran-3-yl]-1″,2″-dihydrodispiro[cyclohexane-1,2′-pyrrolidine-3′,3″-indole]-5′-carboxamide]
1 to 50 nM | 100 to 500 nM | CC(O)[C@@H]1CC[C@@H](NC(=O)[C@@H]2NC3(CCC(C)(C)CC3)[C@@]3(C(=O)Nc4cc(Cl)ccc43)C2c2ccnc(Cl)c2)CO1 (single isomer, unassigned) [Example 77]

The next lines start with the molecule.

SMILES | IC50 [1] | GI50 [2]
CC1(C)CCC2(CC1)N[C@@H](C(=O)NC1(C)CC[C@@H](C(=O)O)OC1)[C@H](c1ccnc(Cl)c1F)[C@]21C(=O)Nc2cc(Cl)ccc21 (stereo partly drawn) [Example 188, (2S)-5-({[(3′R, 4′S,5′R)-6″-chloro-4′-(2-chloro-3-fluoropyridin-4-yl)-4,4-dimethyl-2″-oxo-1″,2″-dihydrodispiro[cyclohexane-1,2′-pyrrolidine-3′,3″-indole]-5′-yl]carbonyl}amino)-5-methyltetrahydro-2H-pyran-2-carboxylic acid] | 1 to 50 nM | 100 to 500 nM
CC1(C)CCC2(CC1)N[C@@H](C(=O)N[C@H]1CC[C@H](c3n[nH]c(=O)o3)CC1)[C@H](c1ccnc(Cl)c1F)[C@]21C(=O)Nc2cc(Cl)ccc21 [Example 35, (3′R, 4′S, S′R)-6″-chloro-4′-(2-chloro-3-fluoropyridin-4-yl)-4,4-dimethyl-2″-oxo-N-[trans-4-(5-oxo-4,5-dihydro-1,3,4-oxadiazol-2-yl)cyclohexyl]-1″,2″-dihydrodispiro[cyclohexane-1,2′-pyrrolidine-3′,3″-indole]-5′-carboxamide] | 50 to 100 nM | < 100 nM
CC1(C)CCC2(CC1)N[C@@H](C(=O)N[C@@H]1CC[C@@H](CC(N)=O)OC1)[C@H](c1ccnc(Cl)c1F)[C@]21C(=O)Nc2cc(Cl)ccc21 [Example 111, (3′R, 4′S,5′R)—N-[(3R,6S)-6-(2-amino-2-oxoethyl)tetrahydro-2H-pyran-3-yl]-6″-chloro-4′-(2-chloro-3-fluoropyridin-4-yl)-4,4-dimethyl-2″-oxo-1″,20-dihydrodispiro[cyclohexane-1,2′-pyrrolidine-3′,3″-indole]-5′-carboxamide] | 1 to 50 nM | 100 to 500 nM
CC1(C)CCC2(CC1)N[C@@H](C(=O)N[C@H]1CC[C@H](O)CC1)[C@H](c1cc(F)cc(Cl)c1)[C@]21C(=O)Nc2cc(Cl)ccc21 [Example 14, (3′R, 4′R, S′R)-6″-chloro-4′-(3-chloro-5-fluorophenyl)-N-(trans-4-hydroxycyclohexyl)-4,4-dimethyl-2″-oxo-1″,2″-dihydrodispiro[cyclohexane-1,2′-pyrrolidine-3′,3″-indole]-5′-carboxamide] | 100 to 500 nM | 500 to 1000 nM
O=C(N[C@@H]1CC[C@@H](CO)OC1)[C@@H]1NC2(CC(CF)(CF)C2)[C@@]2(C(=O)Nc3cc(Cl)ccc32)[C@H]1c1cccc(Cl)c1F [Example 38, (3′R, 4′S,5′R)-6″-chloro-4′-(3-chloro-2-fluorophenyl)-3,3-bis(fluoromethyl)-N-[(3R,6S)-6-(hydroxymethyl)tetrahydro-2H-pyran-3-yl]-2″-oxo-1″,2″-dihydrodispiro [cyclobutane-1,2′-pyrrolidine-3′,3″-indole]-5′-carboxamide] | 1 to 50 nM | 100 to 500 nM
CC1(C)CCC2(CC1)N[C@@H](C(=O)N[C@@H]1CC[C@@H](CO)OC1)[C@H](c1ccnc(Cl)c1F)[C@]21C(=O)Nc2nc(Cl)ccc21 [Example 25, (3′R, 4′S,5′R)-6″-chloro-4′-(2-chloro-3-fluoropyridin-4-yl)-N-[(3R,6S)-6-(hydroxymethyl)tetrahydro-2H-pyran-3-yl]-4,4-dimethyl-2″-oxo-1″,2″-dihydrodispiro[cyclohexane-1,2′-pyrrolidine-3′,3″-pyrrolo[2,3-b]pyridine]-5′-carboxamide] | 1 to 50 nM | 500 to 1000 nM
CC1(C)CCC2(CC1)N[C@@H](C(=O)N[C@@H]1CC[C@@H](C(N)=O)OC1)[C@H](c1ccnc(Cl)c1F)[C@]21C(=O)Nc2cc(Cl)ncc21 [Example 191] | 1 to 50 nM | 100 to 500 nM
CC1(C)CCC2(CC1)N[C@@H](C(=O)N[C@H]1CC[C@H](c3nnco3)CC1)[C@H](c1ccnc(Cl)c1F)[C@]21C(=O)Nc2nc(Cl)ccc21 (relative stereo) [Example 26, (3′R, 4′S,5′R)-6″-chloro-4′-(2-chloro-3-fluoropyridin-4-yl)-4,4-dimethyl-N-[trans-4-(1,3,4-oxadiazol-2-yl)cyclohexyl]-2″-oxo-1″,2″-dihydrodispiro[cyclohexane-1,2′-pyrrolidine-3′,3″-pyrrolo[2,3-b]pyridine]-5′-carboxamide] | 50 to 100 nM | 500 to 1000 nM
Cc1nnc([C@@H]2CC[C@@H](NC(=O)[C@@H]3NC4(CCC(C)(C)CC4)[C@@]4(C(=O)Nc5cc(Cl)ccc54)[C@H]3c3ccnc(Cl)c3F)CO2)o1 [Example 156] | 1 to 50 nM | < 100 nM
